According to patent publication US9101564B2, “Heparanase activity inhibitor, wrinkle improving agent containing same, and pharmaceutical composition” (Shiseido Company, Ltd., priority 2009, dated 2015):

Molecular target: T1, heparanase (Homo sapiens, UniProt Q9Y251)
T1 construct: the supernatant was recovered as cell extract; endogenous in cells; host or cells: A431 (human epithelial carcinoma cells), Triton X-100 lysate
T1 sequence (Q9Y251 158-543 limits assumed): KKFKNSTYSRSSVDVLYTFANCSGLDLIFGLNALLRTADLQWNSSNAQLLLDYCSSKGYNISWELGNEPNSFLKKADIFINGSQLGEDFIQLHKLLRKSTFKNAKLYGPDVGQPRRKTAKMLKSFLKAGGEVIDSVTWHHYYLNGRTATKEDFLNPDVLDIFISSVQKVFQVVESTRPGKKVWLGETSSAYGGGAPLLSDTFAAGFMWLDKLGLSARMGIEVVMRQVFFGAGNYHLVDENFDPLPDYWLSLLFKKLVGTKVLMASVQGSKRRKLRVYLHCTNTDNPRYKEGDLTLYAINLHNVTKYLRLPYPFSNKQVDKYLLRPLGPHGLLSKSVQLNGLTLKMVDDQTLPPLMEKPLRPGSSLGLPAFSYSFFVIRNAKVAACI
T1 sequence (Q9Y251 36-109 limits assumed): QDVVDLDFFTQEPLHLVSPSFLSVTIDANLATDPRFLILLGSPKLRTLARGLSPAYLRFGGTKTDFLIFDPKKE
Test: Heparanase activity inhibition rate, A431 cell extract on biotinylated heparan sulfate-immobilized plate
Type: biochemical
Settings: A431 cell extract 500 μg/mL, 37° C., 2 hours, DMSO 5%
Description: A431 cells (human epithelial carcinoma cells) were cultured in 10% serum-containing DMEM (Dulbecco's modified Eagle medium). The cultured cells were solubilized in lysis buffer (50 mM Tris, 0.5% TritonX-100, 0.15 M sodium chloride, pH 4.5) and collected with a scraper, and then pipetted and allowed to stand on ice for 30 minutes. This was followed by centrifugation at 10,000 rpm for 10 minutes to remove the insoluble portion, and the supernatant was recovered as cell extract. The amount of protein in the cell extract was measured with a BCA protein assay kit (BCA Protein Assay Kit, PIERCE, Calif. 46141).
The A431 cell extract was then diluted to 500 μg/mL with assay buffer (50 mM HEPES, 50 mM sodium acetate, 150 mM sodium chloride, 9 mM calcium chloride, 0.1% BSA). Next, the test compound was dissolved in DMSO and added to the diluted cell extract in proportions of 0.0005 mass %, 0.005 mass % and 0.05 mass %, and these were mixed to prepare sample solutions (DMSO final concentration: 5%). A control solution was prepared by mixing DMSO with the diluted cell extract to a final concentration of 5%. The sample solution and control solution were each seeded in a biotinylated heparan sulfate-immobilized plate at 100 μL/well. […] After further rinsing 3 times with PBS-T, TMB reagent (BIO-RAD, 172-1066) was added at 100 μL/well and reacted therewith, the reaction was terminated with 1N sulfuric acid, and the absorbance at 475 nm (OD475) was measured.
Also, DMSO was added to a serial diluent prepared with the aforementioned A431 cell extract assay buffer (cell extract concentrations: 500 μg/mL, 50 μg/mL, 5 μg/mL, 0.5 μg/mL), to a final concentration of 5% without addition of the test compound, to obtain a mixture (solution for calibration curve). The solution for the calibration curve was subjected to treatment by the same procedure described above, from seeding of the biotinylated heparan sulfate-immobilized plate, and the OD475 was measured. […]

What does the source list for `CC(C)Cc1ccc(O)cc1O` [4-Isobutylresorcinol, 4-isobutylresorcinol]?
Heparanase activity inhibition rate (added concentration 0.0005 mass %): 37.64%; Heparanase activity inhibition rate (added concentration 0.005 mass %): 75.98%; Heparanase activity inhibition rate (added concentration 0.05 mass %): 94.74%
